Laboratory results taken from article PMC10052957, “Exploring Synthetic Dihydrobenzofuran and Benzofuran Neolignans as Antiprotozoal Agents against Trypanosoma cruzi” (Pharmaceutics, 2023).
≈ marks a conversion by molar mass, not a printed value. Read-outs that look alike come from different tables or passages of the source.

How the values were obtained:
[1] = test system: chloroquine-resistant Plasmodium falciparum (strain K1); parameters: method as in PMID 15653333; settings: cited from earlier work
[2] = test system: Leishmania donovani axenic amastigotes; parameters: method as in PMID 15653333; settings: cited from earlier work
[3] = test system: Leishmania donovani infected macrophage; parameters: method as in PMID 15653333; settings: cited from earlier work
[4] = test system: trypomastigote forms of Trypanosoma brucei rhodiense; parameters: method as in PMID 15653333; settings: cited from earlier work
[5] = test system: amastigotes forms of the T. cruzi Y strain; assay: In vitro antitrypanosomal activity against amastigotes of moderately drug-resistant T. cruzi Y strain (Giemsa counting in LLC-MK2 cells); assay type: cell-based, Trypanosoma cruzi; settings: for SI Y Strain: CC50 of LLC-MK2 divided by IC50 at 72 h; for IC50: Trypanosoma cruzi, LLC-MK2, amastigotes, after 72 h, 95% confidence limits in parentheses
[6] = Cytotoxicity in murine spleen cells (propidium iodide, flow cytometry); assay type: cell-based, Swiss mice (Mus musculus); settings: Swiss, mouse, 95% confidence limits in parentheses
Protocol: The cytotoxicity of DBNs 1–4 was determined using the propidium iodide and trypan blue methodologies. To assess the cytotoxic activity using propidium iodide, mice spleen cells were sown at a concentration of 6.5 × 10^6 cells/mL in a 24-well plate. DBNs 1, 2, 3, 4, and BZN were added at concentrations ranging from 1.95 to 250 µM and incubated for 24 h at 37 °C in a 5% CO2 humidified incubator (Sanyo). After the incubation period, the cells were harvested and incubated with a 10 µg/mL propidium iodide solution (Sigma-Aldrich, St. Louis, MO, USA). The cell acquisition was performed within 15 min using a flow cytometer (BD-FACSCanto™II; BD Biosciences, BR), and cell counting was used to obtain the CC50 (50% cytotoxic concentration).

[7] = Cytotoxicity in LLC-MK2 cells (trypan blue); assay type: cell-based, Monkey (Macaca mulata); settings: rhesus monkey (Macaca mulatta), 95% confidence limits in parentheses
Protocol: To assess the cytotoxic activity of DBNs 1–4 using trypan blue, LLC-MK2 cells were sown at a concentration of 2 × 10^5 cells per well in 96-well plates. DBNs 1, 2, 3, 4, and BZN previously dissolved with DMSO were added to achieve the concentration range of 6.25-100 µM and incubated at 37 °C in a 5% CO2 humidified incubator (Sanyo) for 72 h. Next, the cells were trypsinized for 30 s, and then 10 μL of the supernatant was stained with 10 μL of a 0.4% trypan blue solution (Synth, São Paulo, Brazil). Cell counting was performed using transmitted light microscopy (Nikon) with 40X magnification using a Neubauer’s chamber (Global Glass), with a total of 100 cells being counted, where cellsstained blue were considered non-viable. Cell counting was used to obtain the CC50.

[8] = test system: Erythrocytes; assay: Hemolytic activity on defibrinated sheep blood; assay type: cell-based; settings: sheep red blood cells, 30 min, 37 °C
Protocol: The hemolytic activity was determined as described by Kaplum and co-workers with adaptations. Defibrinated sheep blood was diluted in 0.9% saline solution. Neolignans 1, 2, 3, 4, and BZN were solubilized in DMSO (Sigma-Aldrich, St. Louis, MO, USA) and added to microtubes containing red blood cells in concentrations from 6.25 to 100 µM. […] Distilled water was used as a positive control, and a 0.9% saline solution with 0.1% DMSO was used as the negative control.

[9] = test system: trypomastigote forms of the T. cruzi Y strain; parameters: method as in PMID 21570099; settings: cited from earlier work
[10] = test system: 60 humor tumor cell lines; parameters: method as in PMID 10639289; settings: molar drug concentration required for 50% growth inhibition; cited from earlier work
[11] = test system: epimastigote forms of the T. cruzi Y strain; parameters: method as in PMID 17015964; settings: cited from earlier work
[12] = test system: epimastigote forms of the T. cruzi H6 strain; parameters: method as in PMID 12230115; settings: cited from earlier work
[13] = value in parentheses, read-out: IC50

In the case of `CCCCOC(=O)C=Cc1cc(O)c2c(c1)C(C(=O)OCCCC)C(c1ccc(O)c(O)c1)O2` (stereo not drawn), the IC50 [1] is listed as 0.43 µg/mL (≈ 0.914 µM), the IC50 [2] is listed as 0.12 µg/mL (≈ 0.255 µM) and the IC50 [3] is listed as 0.19 µg/mL (≈ 0.404 µM). The IC50 [4] was 0.29 µg/mL (≈ 0.616 µM).

In the case of `COC(=O)C=Cc1ccc2c(c1)C(C(=O)OC)C(c1ccc(O)cc1)O2` (mixture of isomers) [Compound 1, (±)-trans-dehydrodicoumarate dimethyl ester], the “SI Y Strain” value [5] is reported as 21.73, the IC50 [5] is reported as 3.26 µM and the CC50 at 24 h [6] is reported as 49.9 µM. The CC50 at 72 h [7] was 70.9 µM and the “CH50 Erythrocytes” value [8] was greater than 100 µM.

For `C/C=C/c1cc(OC)c2c(c1)[C@@H](C)[C@H](c1ccc(O)c(OC)c1)O2` [(+)-licarin], the IC50 [9] is listed as 87.7 µM.

For `C/C=C/c1cc(OC)c2c(c1)[C@H](C)[C@@H](c1ccc(O)c(OC)c1)O2` [(-)-licarin], the IC50 [9] is listed as 23.5 µM.

With `O=C(Cn1ccnc1[N+](=O)[O-])NCc1ccccc1` [BZN, benznidazole, reference compound] the “SI Y Strain” value [5] was 12.13, the IC50 [5] was 3.56 µM and the CC50 at 24 h [6] was 1.81 µM. It also gave a CC50 at 72 h [7] of 43.2 µM.

With `COC(=O)C=Cc1cc(OC)c2c(c1)C(C(=O)OC)C(c1ccc(O)c(OC)c1)O2` (stereo not drawn) [Compound 2] the IC50 [5] was greater than 25 µM, the CC50 at 24 h [6] was 34.2 µM and the CC50 at 72 h [7] was 67.6 µM. The “CH50 Erythrocytes” value [8] was greater than 100 µM.

With `COC(=O)C=Cc1cc(O)c2c(c1)C(C(=O)OC)C(c1ccc(O)c(O)c1)O2` (stereo not drawn) [Compound 3] the IC50 [5] was greater than 25 µM, the CC50 at 24 h [6] was less than 1.95 µM and the CC50 at 72 h [7] was 30.8 µM. The “CH50 Erythrocytes” value [8] was greater than 100 µM and the GI50 [10] was 0.3 µM.

Work on `COC(=O)C=Cc1ccc2c(c1)C(C(=O)OC)C(c1ccc(OC(C)=O)cc1)O2` (stereo not drawn) [Compound 4] yielded an IC50 [5] greater than 25 µM, a CC50 at 24 h [6] of 51.1 µM and a CC50 at 72 h [7] of 67.5 µM. The “CH50 Erythrocytes” value [8] was greater than 100 µM and the melting point was 103 to 105 °C.

Work on `COC(=O)/C=C/c1ccc2oc(-c3ccc(O)cc3)c(C(=O)OC)c2c1` [Compound 7] yielded a melting point of 204 to 206 °C.

Compound `OCC=Cc1ccc2c(c1)C(CO)C(c1ccc(O)cc1)O2` (stereo not drawn) [Compound 9] has a melting point of 139 to 140 °C.

For `COC(=O)C=Cc1cc(OC)c2c(c1)C(C(=O)OC)C(c1ccc(OC(=O)c3ccccc3)c(OC)c1)O2` (stereo not drawn) [Compound 11], the melting point was 109 to 111 °C.

`COC(=O)CCc1ccc2c(c1)C(C(=O)OC)C(c1ccc(O)cc1)O2` (stereo not drawn) [Compound 12] showed a melting point of 108 to 110 °C.

`OCCCc1ccc2c(c1)C(CO)C(c1ccc(O)cc1)O2` (stereo not drawn) [Compound 14] gave a melting point of 120 to 121 °C.

For `C/C=C/c1ccc2c(c1)[C@@H](C)[C@H](c1ccc(O)cc1)O2` [conocarpan], the IC50 [11] is given as 8.0 µg/mL and the IC50 [11, 13] is given as 30 µM.

In the case of `C/C=C/c1ccc2oc(-c3ccc(O)cc3)c(C)c2c1` [eupomatenoid-6], the IC50 [11] is listed as 7.5 µg/mL and the IC50 [11, 13] is listed as 28.4 µM.

In the case of `C/C=C/c1cc(OC)c2oc(-c3ccc(O)c(OC)c3)c(C)c2c1` [eupomatenoid-7], the IC50 [12] is listed as 77 µM.

For `C/C=C/c1cc(OC)c2c(c1)[C@H](C)[C@@H](c1ccc(O)c(OC)c1)O2` [licarin A], the IC50 [12] is given as 123 µM.

In the case of (±)-licarin, the IC50 [9] is listed as 127 µM.

For Eupatemoid-3, the IC50 [11] is given as 26.3 µg/mL and the IC50 [11, 13] is given as 90.9 µM.

In the case of eupomatenoid-5, the IC50 [11] is listed as 7.0 µg/mL and the IC50 [11, 13] is listed as 23.8 µM.
